In general, inhibition in vivo refers to how much of the control response was suppressed. Lower therefore signals little suppression. The term inhibition denotes the drop in the measured response relative to a control, in per cent. Read a high inhibition as a response far below the control. What is called Ki is a dissociation constant, usually derived from enzyme kinetics or from competition with a known ligand.

The values below come from patent publication US4748240A, “Psychotropic bicyclic imides” (American Home Products Corporation, priority 1987, dated 1988).

Read-outs that look alike come from different tables or passages of the source.

The test system of assay [1] is conditioned avoidance responding. The assay is described as follows: Conditioned avoidance, shelf-jump response. The format is in vivo, rat (male CD, Charles River). The following applies: Rattus norvegicus, ip; single dose 40 mg/kg. The text has this: (§1) The antipsychotic properties of the compounds of this invention were established by standard pharmacologically accepted procedures involving conditioned avoidance studies in which trained male CD rats (Charles River), 400-450 g. body weight are exposed to a fifteen second warning tone (conditioned stimulus) continued for an additional fifteen seconds accompanied by electric shock. The rat can avoid the electric shock by jumping to an exposed shelf (shelf-jump response). A response during the initial warning tone is considered an avoidance response, while a response during shock delivery is considered as escape response. The shelf-jump response test procedure follows that of Herman et al., Comm. in Psychopharm., 3, pp. 165-171 (1979). The compounds of this invention were tested at a single dose (40 mg./kg. i.p.) in this procedure and were rated relative to their inhibition of conditioned avoidance responding. A similar test procedure (Discrete Trial) in which a lever press was substituted for a shelf-jump was used to establish the oral (p.o.) activity of the test compounds. Orally active compounds were tested over a full dose range and the Avoidance Block activities reported as "AB50 's" (mg./kg.).

Assay [2] has the same test system. The assay is described as follows: Conditioned avoidance, Discrete Trial (lever press). The format is in vivo, rat (male CD, Charles River). The following applies: for Conditioned Avoidance, Discrete Trial AB50: p.o.; for ED50: Rattus norvegicus, po, read-out: Conditioned Avoidance, Discrete Trial AB50.
Text: as §1

Assay [3] deals with apomorphine-induced stereotyped behavior and climbing. Nature of the assay: Antagonism of apomorphine-induced stereotyped behavior and climbing. The format is in vivo, mouse (CF-1, Charles River). The following applies: apomorphine 1 mg/kg s.c.; for ED50: Mus musculus, po. The method, then:
Readings are repeated every five minutes during a thirty minute test session. […] The ratio of the ED50 for stereotyped behavior of the ED50 for climbing is calculated.

Assay [4] deals with T1, D-2 dopamine receptor (Rattus norvegicus, UniProt P61169).
T1 construct: from tissue; host or cells: homogenized limbic brain tissue
The assay is described as follows: [^3 H] Spiroperidol binding inhibition (D-2 dopamine receptor, homogenized limbic brain tissue). From the text:
The results of this testing with compounds representative of the invention whose production is exemplified, infra, are as follows: […]

Assay [5] deals with T2, 5-HT1A serotonin receptor (Rattus norvegicus, UniProt P19327).
T2 construct: from tissue
T2 sequence (P19327 1-422): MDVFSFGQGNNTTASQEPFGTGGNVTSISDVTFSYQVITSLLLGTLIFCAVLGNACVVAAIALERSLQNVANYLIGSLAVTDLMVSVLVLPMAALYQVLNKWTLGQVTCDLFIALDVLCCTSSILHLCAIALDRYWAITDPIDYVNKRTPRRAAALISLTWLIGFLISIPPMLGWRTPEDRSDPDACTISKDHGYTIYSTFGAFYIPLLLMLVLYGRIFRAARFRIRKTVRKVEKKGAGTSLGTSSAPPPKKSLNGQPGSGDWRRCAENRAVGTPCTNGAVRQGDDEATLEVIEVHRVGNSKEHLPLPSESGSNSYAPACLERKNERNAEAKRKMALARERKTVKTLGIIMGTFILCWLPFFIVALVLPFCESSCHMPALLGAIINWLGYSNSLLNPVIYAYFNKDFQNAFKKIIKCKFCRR
The assay is described as follows: Inhibition of [^3 H] 8-OH DPAT binding.
Text: 8-OH DPAT (dipropylaminotetralin) from the 5-HT1A serotonin receptor by the procedure of Hall et al., J. Neurochem.

Where [6] appears, read: read-out: Apomorphine Antagonism, Climbing ED50.

T1 sequence (P61169 whole entry): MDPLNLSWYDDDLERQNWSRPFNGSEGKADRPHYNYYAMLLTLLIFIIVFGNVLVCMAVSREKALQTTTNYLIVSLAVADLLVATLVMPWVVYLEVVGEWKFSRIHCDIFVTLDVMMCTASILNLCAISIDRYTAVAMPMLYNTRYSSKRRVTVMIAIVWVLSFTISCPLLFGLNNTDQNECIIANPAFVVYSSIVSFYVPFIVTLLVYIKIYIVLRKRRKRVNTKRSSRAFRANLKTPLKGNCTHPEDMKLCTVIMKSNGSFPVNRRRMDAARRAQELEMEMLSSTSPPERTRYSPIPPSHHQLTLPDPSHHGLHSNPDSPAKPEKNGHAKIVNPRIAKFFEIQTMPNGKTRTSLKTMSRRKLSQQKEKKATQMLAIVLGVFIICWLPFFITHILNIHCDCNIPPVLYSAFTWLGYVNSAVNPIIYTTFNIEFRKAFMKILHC

Compound `CC1(C)C2CCC1C(=O)N(CCCCN1CCN(c3ncccn3)CC1)C2=O` [Example 20, 3-[4-[4-(2-Pyrimidinyl)-1-piperazinyl]butyl]-8,8-dimethyl-3-azabicyclo[3.2.1]octane-2,4-dione] returned an inhibition in vivo at 40 mg/kg in assay [1] of more than 20%. In addition, the “Conditioned Avoidance, Discrete Trial AB50” value (“Conditioned Avoidance” for short) in assay [2] is “inactive”. For the same compound, the ED50 in assay [3] (setting [6]) stood at 0.2 mg/kg. The “Apomorphine Antagonism, Stereotypy ED50” value in assay [3] (p.o.) is “inactive”. Besides, in assay [4], the inhibition at 1 µM was determined as 53%. In assay [5], this compound had a Ki of 0.016 µM.

On to `O=C1C2CC=CCC(C2)C(=O)N1CCCCN1CCN(c2ncccn2)CC1` [Example 21, 8-[4-[4-(2-Pyrimidinyl)-1-piperazinyl]butyl]-8-azabicyclo[4.3.1]dec-3-ene-7,9-dione], for which, in assay [1], the inhibition in vivo at 40 mg/kg was more than 20%. Moreover, the “Conditioned Avoidance” value in assay [2] was “inactive”. Further, the ED50 in assay [3] (setting [6]) came to 11.1 mg/kg. Also, in assay [3] (p.o.), the “Apomorphine Antagonism, Stereotypy ED50” value was “inactive”. In addition, in assay [4], 1 µM produced 63% inhibition. The same compound displayed a Ki in assay [5] of 0.015 µM.

Take `O=C1C2CCC(C2)C(=O)N1CCCCN1CCN(c2ncccn2)CC1` [Example 2, 3-[4-[4-(2-Pyrimidinyl)-1-piperazinyl]butyl]-3-azabicyclo[3.2.1]octane-2,4-dione]: the inhibition in vivo at 40 mg/kg in assay [1] is more than 20%. Further, in assay [2], the “Conditioned Avoidance” value is given as “weak”. In addition, the “Apomorphine Antagonism, Stereotypy ED50” value in assay [3] (p.o.) is “inactive”. Further, the inhibition constant Ki in assay [4] was found to be 2.61 µM; in assay [5] it was 0.106 µM.

Compound `COc1ccccc1N1CCN(CCCCN2C(=O)C3CCC(C3)C2=O)CC1` [Example 17, 3-[4-[4-(2-Methoxyphenyl)-1-piperazinyl]butyl]-3-azabicyclo[3.2.1]octane-2,4-dione] showed an inhibition in vivo at 40 mg/kg in assay [1] of approximately 80%. Moreover, the ED50 worked out at 29.4 mg/kg in assay [2]; 0.83 mg/kg in assay [3] (setting [6]); 5.83 mg/kg in assay [3] (read-out: Apomorphine Antagonism, Stereotypy ED50). This compound came in with an inhibition at 1 µM in assay [4] of 0%. This compound came in with a Ki in assay [5] of 0.005 µM.

`O=C1C2CCCC(C2)C(=O)N1CCCCN1CCN(c2ncccn2)CC1` [Example 1, 3-[4-[4-(2-Pyrimidinyl)-1-piperazinyl]butyl]-3-azabicyclo[3.3.1]nonane-2,4-dione] returned an inhibition in vivo at 40 mg/kg in assay [1] of approximately 80%. The “Conditioned Avoidance” value in assay [2] is “inactive”. In addition, the “Apomorphine Antagonism, Stereotypy ED50” value in assay [3] (p.o.) is “inactive”. Further, in assay [4], at 1 µM the inhibition was 38%. Also, in assay [5], the inhibition constant Ki turned out to be 0.01 µM.

`O=C1C2CCCC(S2)C(=O)N1CCCCN1CCN(c2ncccn2)CC1` [Example 5, 3-[4-[4-(2-Pyrimidinyl)-1-piperazinyl]butyl]-9-thia-3-azabicyclo[3.3.1]nonane-2,4-dione] showed an inhibition in vivo at 40 mg/kg in assay [1] of more than 20%. In assay [2], the ED50 amounted to 47.3 mg/kg. Besides, in assay [3] (p.o.), the “Apomorphine Antagonism, Climbing ED50” value is “inactive” and the “Apomorphine Antagonism, Stereotypy ED50” value is “inactive”. Further, the inhibition at 1 µM in assay [4] was found to be 27%. The same compound showed an inhibition constant Ki in assay [5] of 0.016 µM.

Turning to `O=C1C2CCC(C2)C(=O)N1CCCCN1CCN(c2ccc3ccccc3n2)CC1` [Example 9, 3-[4-[4-(2-Quinolyl)-1-piperazinyl]butyl]-3-azabicyclo[3.2.1]octane-2,4-dione], the inhibition in vivo at 40 mg/kg in assay [1] is more than 20%. In addition, the values for the ED50 in assay [2] and in assay [3] (setting [6]) were 98.2 mg/kg and 40.9 mg/kg, respectively. Besides, the “Apomorphine Antagonism, Stereotypy ED50” value in assay [3] (p.o.) is “inactive”. Moreover, testing at 1 µM in assay [4] gave an inhibition of 31%. Further, the affinity in assay [5] corresponds to a Ki of 0.06 µM.
